From ChEMBL document CHEMBL1201862, “PubChem BioAssay data set” (2004)
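Briefly, cells in 96-well plates were exposed to five compound concentrations for 48 h, and endpoints were estimated by linear interpolation. Here, GI50 denotes the concentration required for 50% inhibition of growth.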 Calls of active or inactive are those of the source. No stated cut-off is given here; in the data, active = GI50 up to about 1.1 µM and inactive = higher.

Key:
Test in all cases: DTP human tumour cell line panel, 48 h
BT-549 = tested on: BT-549
DU-145 = tested on: DU-145
HCC 2998 = tested on: HCC 2998
HCT-116 = tested on: HCT-116
HCT-15 = tested on: HCT-15
LOX IMVI = tested on: LOX IMVI
M14 = tested on: M14
MDA-MB-435 = tested on: MDA-MB-435
Malme-3M = tested on: Malme-3M
OVCAR-3 = tested on: OVCAR-3
OVCAR-4 = tested on: OVCAR-4
OVCAR-8 = tested on: OVCAR-8
PC-3 = tested on: PC-3
RPMI-8226 = tested on: RPMI-8226
RXF 393 = tested on: RXF 393
SF-268 = tested on: SF-268
SF-539 = tested on: SF-539
SK-MEL-5 = tested on: SK-MEL-5
SK-OV-3 = tested on: SK-OV-3
SR = tested on: SR

| Structure (SMILES) | GI50 (BT-549) | GI50 (DU-145) | GI50 (HCC 2998) | GI50 (HCT-116) | GI50 (HCT-15) [µM] | GI50 (LOX IMVI) | GI50 (M14) | GI50 (MDA-MB-435) | GI50 (Malme-3M) | GI50 (OVCAR-3) | GI50 (OVCAR-4) | GI50 (OVCAR-8) | GI50 (PC-3) | GI50 (RPMI-8226) | GI50 (RXF 393) | GI50 (SF-268) | GI50 (SF-539) | GI50 (SK-MEL-5) | GI50 (SK-OV-3) | GI50 (SR) |
| --- | --- | --- | --- | --- | --- | --- | --- | --- | --- | --- | --- | --- | --- | --- | --- | --- | --- | --- | --- | --- |
| COc1cc(/C=C2\C[C@H]3[C@@H]4CC=C5C=C(N6CCCC6)CC[C@]5(C)[C@H]4CC[C@]3(C)C2=O)cc(OC)c1OC | 2.12 µM (inactive) | 3.44 µM (inactive) | 1.93 µM (inactive) | 1.91 µM (inactive) | 2.23 | 1.48 µM (inactive) | 2.19 µM (inactive) | 1.63 µM (inactive) | 2.01 µM (inactive) | 1.88 µM (inactive) | 1.75 µM (inactive) | 2.16 µM (inactive) | 3.12 µM (inactive) | 2.53 µM (inactive) | 1.9 µM (inactive) | 2.23 µM (inactive) | 3.5 µM (inactive) | 2.76 µM (inactive) | 6.89 µM (inactive) | 1.44 µM (inactive) |
| CC(=O)O[C@H]1CC[C@@]2(C)C(=CC[C@@H]3[C@@H]2CC[C@]2(C)C(=O)/C(=C\c4ccccc4)C[C@@H]32)C1 | > 100 µM (inactive) | > 100 µM (inactive) | > 100 µM (inactive) | 96.2 µM (inactive) | > 100 | > 100 µM (inactive) | > 100 µM (inactive) | > 100 µM (inactive) | 89.9 µM (inactive) | 61.9 µM (inactive) | > 100 µM (inactive) | > 100 µM (inactive) | 64.7 µM (inactive) | > 100 µM (inactive) | 40.5 µM (inactive) | > 100 µM (inactive) | > 100 µM (inactive) | 39.4 µM (inactive) | > 100 µM (inactive) | > 100 µM (inactive) |
| CN1CCN(CN2C(=O)C3C4C=CC(C3C2=O)C2C(=O)N(CN3CCN(C)CC3)C(=O)C42)CC1 (stereo not given) | 52.2 µM (inactive) | 17.8 µM (inactive) | > 57.4 µM (inactive) | 36.6 µM (inactive) | 34 | 24.8 µM (inactive) | > 51.3 µM (inactive) | > 74.6 µM (inactive) | > 55.3 µM (inactive) | > 59.6 µM (inactive) | > 100 µM (inactive) | > 100 µM (inactive) | > 84.5 µM (inactive) | 20.7 µM (inactive) | 27 µM (inactive) | > 62.1 µM (inactive) | > 49.3 µM (inactive) | 5.55 µM (inactive) | > 100 µM (inactive) | 32.4 µM (inactive) |
| Clc1nc2c(N3CCCC3)nc(N3CCNCC3)nc2[nH]1 | 29.4 µM (inactive) | 16.4 µM (inactive) | 15.9 µM (inactive) | 16 µM (inactive) | 18.9 | 15.8 µM (inactive) | 19.7 µM (inactive) | 18.7 µM (inactive) | 20.7 µM (inactive) | 18 µM (inactive) | 18.5 µM (inactive) | 16 µM (inactive) | 17.8 µM (inactive) | 21.3 µM (inactive) | 14.1 µM (inactive) | 19.2 µM (inactive) | 18.4 µM (inactive) | 15.1 µM (inactive) | 18.2 µM (inactive) | 16.9 µM (inactive) |
